{"source": "paper PMC3699648", "about": "“Replacement of the Human Topoisomerase Linker Domain with the Plasmodial Counterpart Renders the Enzyme Camptothecin Resistant” (PLoS ONE, 2013)", "target": "T1, hTop1 (Homo sapiens, UniProt P11387)", "T1 construct": "gene TOP1; expressed in S. cerevisiae top1 null EKY3, anti-FLAG purified", "T1 sequence (P11387 1-765)": "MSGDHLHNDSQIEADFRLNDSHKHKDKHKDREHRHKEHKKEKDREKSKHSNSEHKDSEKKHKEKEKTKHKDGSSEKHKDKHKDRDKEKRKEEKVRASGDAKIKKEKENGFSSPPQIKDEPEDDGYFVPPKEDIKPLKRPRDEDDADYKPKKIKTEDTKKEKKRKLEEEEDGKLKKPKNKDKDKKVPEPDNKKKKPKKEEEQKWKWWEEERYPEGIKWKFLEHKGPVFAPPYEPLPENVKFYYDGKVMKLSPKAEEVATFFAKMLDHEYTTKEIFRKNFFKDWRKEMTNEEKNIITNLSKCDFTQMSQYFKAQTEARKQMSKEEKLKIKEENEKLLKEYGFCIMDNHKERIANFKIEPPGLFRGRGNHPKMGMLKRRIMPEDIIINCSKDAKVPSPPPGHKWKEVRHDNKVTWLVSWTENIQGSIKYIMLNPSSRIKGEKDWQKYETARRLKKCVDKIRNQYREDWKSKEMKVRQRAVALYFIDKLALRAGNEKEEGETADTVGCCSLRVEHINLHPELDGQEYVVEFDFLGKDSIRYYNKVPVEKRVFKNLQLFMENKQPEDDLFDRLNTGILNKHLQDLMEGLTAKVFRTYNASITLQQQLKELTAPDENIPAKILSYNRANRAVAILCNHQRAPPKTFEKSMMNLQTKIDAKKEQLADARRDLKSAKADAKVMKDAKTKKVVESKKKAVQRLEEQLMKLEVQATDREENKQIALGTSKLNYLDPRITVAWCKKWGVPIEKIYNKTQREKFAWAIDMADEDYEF", "assay": "stabilisation of DNA cleavage complex (CL25/CP25, gel); also relaxation and religation assays", "type": "biochemical", "conditions": "100 µM CPT, 20 nM duplex CL25/CP25, 1 min, 25 °C, pH 7.5, 5 mM MgCl2, 5 mM CaCl2, 150 mM KCl; binds covalent enzyme-DNA complex"}
{"compound": "CC[C@@]1(O)C(=O)OCc2c1cc1n(c2=O)Cc2cc3ccccc3nc2-1", "note": "[CPT, camptothecin]", "values": [{"measurement": "% cleavage complex at 100 μM", "value": "In presence of CPT the hTop1 cleavage is strongly increased"}]}
